Earlier results, collected in patent publication US6080725A, “Immunostimulating and vaccine compositions employing saponin analog adjuvants and uses thereof” (priority 1999, dated 2000).
Read-outs that look alike come from different tables or passages of the source.

Test system: lymphoproliferative test

CC(=O)O[C@@H]1[C@H](O[C@@H]2O[C@@H](CO)[C@H](O)[C@H]2O)[C@@H](O[C@@H]2O[C@@H](C)[C@H](O[C@@H]3OC[C@@H](O)[C@H](O)[C@H]3O)[C@@H](O)[C@H]2O)[C@H](OC(=O)[C@]23CCC(C)(C)C[C@H]2C2=CC[C@@H]4[C@@]5(C)CC[C@H](O[C@@H]6O[C@H](C(=O)O)[C@@H](O)[C@H](O[C@@H]7OC[C@@H](O)[C@H](O)[C@H]7O)[C@H]6O[C@@H]6O[C@H](CO)[C@H](O)[C@H](O)[C@H]6O)[C@@](C)(C=O)[C@H]5CC[C@@]4(C)[C@]2(C)CC3)O[C@@H]1C [squarroside A]
immunomodulating effect, lymphoproliferative test (concentrations in the pg range): stimulant effect
immunomodulating effect, lymphoproliferative test (concentrations in the μg range): suppressive effect
immunomodulating activity, lymphoproliferative test (dose-dependent): immunomodulating activity
